Data: patent US4959367A, “4-oxo-1,2,3-benzotriazines” (Beecham Group P.L.C., priority 1987, dated 1990)

Test system: von Bezold-Jarisch reflex evoked by 5-HT
Assay: Antagonism of the von Bezold-Jarisch reflex evoked by 5-HT in the anaesthetised rat
Format: in vivo
Details: male rats, urethane anaesthesia, submaximal 5-HT (usually 6 μg/kg) i.v., heart rate changes; for ED50: Rattus norvegicus, iv, read-out: ED50 (required to reduce the 5HT-evoked response to 50% of the control response)
Description: Antagonism of the von Bezold-Jarisch reflex
The compounds were evaluated for antagonism of the von Bezold-Jarisch reflex evoked by 5-HT in the anaesthetised rat according to the following method:
Male rats, 250-350 g, were anaesthetised with urethane (1.25 g/kg intraperitoneally) and blood pressure and heart rate recorded as described by Fozard J.R. et al., J. Cardiovasc. Pharmacol. 2, 229-245 (1980). A submaximal dose of 5-HT (usually 6 μg/kg) was given repeatedly by the intravenous route and changes in heart rate quantified. Compounds were given intravenously and the concentration required to reduce the 5HT-evoked response to 50% of the control response (ED50) was then determined.

CN1[C@@H]2CC[C@H]1C[C@@H](n1nnc3ccc(Cl)cc3c1=O)C2 [Compound E1, (endo)-3-(8-Methyl-8-azabicyclo[3.2.1]oct-3-yl)-6-chloro-3,4-dihydro-4-oxo-1,2,3-benzotriazine]
ED50: 0.012 mg/kg

CN1[C@@H]2CC[C@H]1C[C@@H](n1nnc3cc([N+](=O)[O-])c(Cl)cc3c1=O)C2 [Compound E3, (endo)-3-(8-Methyl-8-azabicyclo[3.2.1]oct-3-yl)-6-chloro-7-nitro-3,4-dihydro-4-oxo-benzotriazine]
ED50: 0.013 mg/kg

CN1[C@@H]2CC[C@H]1C[C@@H](n1nnc3cc(N)c(Cl)cc3c1=O)C2 [Compound E4, (endo)-3-(8-Methyl-8-azabicyclo[3.2.1]oct-3-yl)-7-amino-6-chloro-3,4-dihydro-4-oxo-benzotriazine]
ED50: 0.00017 mg/kg

CN1CC2CCC1CC2n1nnc2cc(N)c(Cl)cc2c1=O (stereo not drawn) [Compound E8, (5β)-3-(2-Methyl-2-azabicyclo[2.2.2]oct-5-yl)-7-amino-6-chloro-3,4-dihydro-4-oxobenzotriazine]
ED50 (required to reduce the 5HT-evoked response to 50% of the control response) (i.v.): 0.006 mg/kg
